Measured values as given in patent publication US10759826B2, “15β-substituted estrone derivatives as selective inhibitors of 17β-hydroxysteroid-dehydrogenases, method of preparation and use thereof” (USTAV ORGANICKE CHEMIE A BIOCHEMIE AV CR, V.V.I., priority 2016, dated 2020).

Tests used:
CaOV-3 = experiment: 7 day proliferation assay, CaOV-3; format: cell-based; conditions: 1 μmol·l^−1, 7 days
Protocol: (§1) In this study, T47D cells were propagated in RPMI 1640 medium supplemented with 10% fetal bovine serum, 2 mmol^·l^−1 glutaMAX (Thermo Fisher Scientific, MA, USA), and penicillin/streptomycin (Thermo Fisher Scientific, Waltham, USA) and incubated in a 5% CO2-humidified atmosphere at 37° C. to the amount needed for the experiment. Two days prior to testing of compounds, growth medium was changed to medium without phenol red, supplemented with 2 mmol^·l^−1 Glutamax and 4% FBS depleted of lipophilic components (including the endogenous estrogenic substances) (Hyclone, GE Healthcare Life Sciences, USA). Two days after the medium replacement, the cells were harvested, counted and resuspended in a medium. Cells were dispensed with liquid dispenser Multidrop (Thermo Fisher Scientific, Waltham, USA), to the cell culture treated, 12-well plates (Corning Inc., NY, USA) at 100 000 cells/well in 1 mL of total media volume. […] After 7 days of cell cultivation with compounds, cells were harvested and counted. […]
(§2) Compounds 9 and 12 were tested in the proliferation assay with cell lines derived from the triple negative breast cancer (MDA-MB-231), AR-negative prostate cancer (PC3, DU145) and ovarian cancer (SK-OV-3, CaoV-3). […] At the end of the treatment, cells were harvested and counted. […]

PC3 = experiment: 7 day proliferation assay, PC3; format: cell-based; conditions: 1 μmol·l^−1, 7 days
Protocol: as §1, §2

[1] = molecular target: T1, progesterone receptor (PR) (Homo sapiens, UniProt P06401); experiment: PR luciferase reporter assay in U2OS cells; format: cell-based; conditions: read-out: ANTAGONIST mode PR IC50
T1 construct: expressed in transfected cells
T1 sequence (P06401 whole entry): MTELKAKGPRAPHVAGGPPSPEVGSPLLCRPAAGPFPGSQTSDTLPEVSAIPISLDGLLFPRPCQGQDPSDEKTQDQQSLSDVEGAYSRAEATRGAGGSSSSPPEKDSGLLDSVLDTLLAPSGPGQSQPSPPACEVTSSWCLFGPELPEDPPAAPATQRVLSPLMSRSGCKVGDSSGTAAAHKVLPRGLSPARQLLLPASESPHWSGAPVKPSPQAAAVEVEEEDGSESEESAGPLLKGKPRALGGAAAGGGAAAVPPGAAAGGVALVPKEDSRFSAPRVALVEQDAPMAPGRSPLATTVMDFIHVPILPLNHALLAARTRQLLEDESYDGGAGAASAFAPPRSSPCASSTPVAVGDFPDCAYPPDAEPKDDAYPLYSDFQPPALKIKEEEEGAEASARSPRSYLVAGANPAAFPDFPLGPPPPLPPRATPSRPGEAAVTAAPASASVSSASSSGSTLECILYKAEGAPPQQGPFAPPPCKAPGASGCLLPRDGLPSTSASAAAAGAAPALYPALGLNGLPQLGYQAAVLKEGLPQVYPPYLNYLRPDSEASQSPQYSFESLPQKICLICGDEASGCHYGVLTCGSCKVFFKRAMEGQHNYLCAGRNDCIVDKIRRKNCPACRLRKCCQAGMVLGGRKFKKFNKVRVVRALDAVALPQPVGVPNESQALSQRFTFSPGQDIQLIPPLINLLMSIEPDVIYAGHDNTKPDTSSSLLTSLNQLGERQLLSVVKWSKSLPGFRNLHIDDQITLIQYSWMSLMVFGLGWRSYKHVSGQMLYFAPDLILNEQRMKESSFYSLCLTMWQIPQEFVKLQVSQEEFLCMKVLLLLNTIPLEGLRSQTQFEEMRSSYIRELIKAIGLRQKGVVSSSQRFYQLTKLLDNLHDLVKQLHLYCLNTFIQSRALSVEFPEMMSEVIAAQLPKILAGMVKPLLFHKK

human 17βHSD type 1 = molecular target: T2, human 17βHSD type 1 (Homo sapiens, UniProt P14061); experiment: Inhibition of recombinant 17βHSD type 1, tritium-labeled substrate conversion; format: biochemical; conditions: for inhibition at 0.1 µM: 0.1 μmol · l^−1 test substance; for inhibition at 0.1 µM / inhibition at 1 µM: read-out: % of inhibition of human 17βHSD1; for inhibition at 1 µM: 1 μmol · l^−1 test substance
T2 construct: made in house; expressing system suspended in buffer, not purified
T2 sequence (P14061 1-328): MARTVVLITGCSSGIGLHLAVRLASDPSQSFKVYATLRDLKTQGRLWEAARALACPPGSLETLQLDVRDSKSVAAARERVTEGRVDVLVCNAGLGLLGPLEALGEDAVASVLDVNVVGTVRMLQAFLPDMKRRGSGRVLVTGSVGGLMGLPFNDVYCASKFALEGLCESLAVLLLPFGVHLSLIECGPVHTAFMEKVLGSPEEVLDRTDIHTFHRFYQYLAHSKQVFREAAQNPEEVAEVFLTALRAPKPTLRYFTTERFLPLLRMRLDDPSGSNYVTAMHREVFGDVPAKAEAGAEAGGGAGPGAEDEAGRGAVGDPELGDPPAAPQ
Protocol: The inhibitory activity of the test substances was determined for individual isoenzymes from the 17βHSD family, specifically these were the types 1, 2, 3, 4, 5 and 7. Escherichia coli and mammalian cells expression systems were used for recombinant expression of individual isozymes of human 17βHSD. Only in the case of 17HSD5 the enzyme was partially purified and supernatant obtained by centrifugation of the bacterial lysate was used for testing. Systems expressing specific 17βHSD type were suspended in a reaction buffer and incubated with tritium-labeled substrates and respective cofactors at 37° C. in two parallel tests: the control arrangement (DMSO without the inhibitor) and the test arrangement (DMSO with the inhibitor). DMSO serves as a negative control in this case. After 20-30% of the substrate was converted by the activity of the enzyme to the product in a control test, both tests were terminated. Substrate and product from the test arrangement were isolated by SPE (solid phase extraction), and then separated by reverse phase HPLC. Substrate conversion was determined by integration of the signals of the substrate and product, and was expressed in %. For the purposes of the subsequent calculation of enzyme inhibition, the conversion of the control test was designated as 0% inhibition. All tests were performed in triplicates. IC50 values were subsequently determined by a standard method using the “One Ligand Binding” model of SigmaPlot kinetics module (Schustera et. al. J. Ster. Biochem. Mol. Biol. 2011, 125, 148; Möller et. al. Biioorg. Med. Chem. Lett. 2009, 19, 6740; Möller et. al. PLoS One, 2010, 5, 6, e10969).

androgen receptor (AR) = molecular target: T3, androgen receptor (AR) (Homo sapiens, UniProt P10275); experiment: AR luciferase reporter assay in U2OS cells; format: cell-based; conditions: for AR antagonism in words: testing range 10 μmol·l^−1 to 1 nmol·l^−1
T3 construct: expressed in transfected cells
T3 sequence (P10275 1-920): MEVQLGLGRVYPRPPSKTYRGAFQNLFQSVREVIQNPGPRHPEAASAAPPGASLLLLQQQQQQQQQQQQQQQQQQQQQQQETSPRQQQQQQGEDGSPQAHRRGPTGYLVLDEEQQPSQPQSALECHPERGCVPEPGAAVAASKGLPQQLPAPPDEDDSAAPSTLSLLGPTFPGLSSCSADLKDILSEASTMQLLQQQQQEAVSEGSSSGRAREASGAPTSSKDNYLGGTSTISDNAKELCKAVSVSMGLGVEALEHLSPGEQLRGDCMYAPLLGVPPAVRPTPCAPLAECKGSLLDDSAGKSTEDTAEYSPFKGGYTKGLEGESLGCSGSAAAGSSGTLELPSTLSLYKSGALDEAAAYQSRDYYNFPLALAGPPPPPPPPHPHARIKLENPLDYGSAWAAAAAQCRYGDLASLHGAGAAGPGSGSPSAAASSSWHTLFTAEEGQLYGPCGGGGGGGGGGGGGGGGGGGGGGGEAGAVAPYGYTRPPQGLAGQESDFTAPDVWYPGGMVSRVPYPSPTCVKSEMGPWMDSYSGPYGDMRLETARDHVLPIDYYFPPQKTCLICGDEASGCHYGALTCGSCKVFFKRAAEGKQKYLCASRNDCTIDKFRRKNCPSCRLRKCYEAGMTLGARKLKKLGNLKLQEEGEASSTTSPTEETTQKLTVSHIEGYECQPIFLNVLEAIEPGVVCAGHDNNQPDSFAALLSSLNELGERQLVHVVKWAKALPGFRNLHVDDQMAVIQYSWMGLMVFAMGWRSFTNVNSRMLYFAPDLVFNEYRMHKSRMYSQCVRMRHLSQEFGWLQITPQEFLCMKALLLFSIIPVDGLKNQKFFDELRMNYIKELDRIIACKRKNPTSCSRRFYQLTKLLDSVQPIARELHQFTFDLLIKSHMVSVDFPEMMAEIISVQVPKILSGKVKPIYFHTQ

| Compound | % of survived cells compared to untreated samples, CaOV-3 (CaOV-3) [%] | % of survived cells compared to untreated samples, PC3 (PC3) [%] | IC50 [1] [µM] | inhibition at 0.1 µM (human 17βHSD type 1) [%] | inhibition at 1 µM (human 17βHSD type 1) [%] | IC50 (human 17βHSD type 1; read-out: 17βHSD1 IC50) [µM] | AR antagonism in words (androgen receptor (AR)) | IC50 (androgen receptor (AR); antagonist mode, 1 nmol·l^−1 DHT) [µM] |
| --- | --- | --- | --- | --- | --- | --- | --- | --- |
| COc1ccc(CC[C@@H]2CC(=O)[C@@]3(C)CC[C@@H]4c5ccc(O)cc5CC[C@H]4[C@H]23)cc1 [Compound 9, 3-Hydroxy-15β-(4-methoxyphenethyl)-estra-1,3,5 (10)-trien-17-one] | 94 | 96 | 13.6 | 91 | 100 | 0.01 | AR antagonist | – |
| CCOc1ccc(CC[C@@H]2CC(=O)[C@@]3(C)CC[C@@H]4c5ccc(O)cc5CC[C@H]4[C@H]23)cc1 [Compound 12, 15β-(4-Ethoxyphenethyl)-3-hydroxy-estra-1,3,5(10)-trien-17-one] | 88 | 98 | 13.7 | 85 | 88 | – | antagonists of both types of receptors | 89.1 |
